BindingDB's records for doi:10.1016/S0960-894X(00)80673-3 (1993)

Biological target: HIV-2 protease (Human immunodeficiency virus 2)
Assay: Tested for the inhibition of HIV-2 protease

Ki: 0.065 µM
SMILES: CCC(C)[C@H](NC(=O)[C@@H](C[C@H](O)[C@H](CC1CCCCC1)NC(=O)[C@H](CC(N)=O)NC(=O)c1ccc2ccccc2n1)C(C)C)C(=O)NCc1ccccn1 (stereo partly drawn) [(S)-N*1*-((1S,2S,4S)-1-Cyclohexylmethyl-2-hydroxy-5-methyl-4-{(S)-2-methyl-1-[(pyridin-2-ylmethyl)-carbamoyl]-butylcarbamoyl}-hexyl)-2-[(quinoline-2-carbonyl)-amino]-succinamide]
